Data as given in patent US12698258B2, “Cystine cationic lipids” (Translate Bio, Inc., priority 2019, dated 2026).

System: hEPO protein expression
Test: In vivo expression of hEPO after IM injection of lipid nanoparticle formulations with hEPO mRNA
Set-up: species or system BALB/c mice
Settings: lipid nanoparticles comprising the compound and hEPO mRNA; single intramuscular injection, 0.1 ug; hEPO in sera by ELISA; 24 hours after administration
Method: In embodiments, cationic lipids described herein can be used in the preparation of lipid nanoparticles according to methods known in the art. For example, suitable methods include methods described in international Publication No. WO 2018/089801, which is hereby incorporated by reference in its entirety.
Lipid nanoparticle formulations comprising human erythropoietin (hEPO) mRNA, Cationic Lipid, DMG-PEG2000, Cholesterol and DOPE were administered intramuscularly to study mRNA delivery and resultant hEPO expression. Male BALB/c mice at 6-8 weeks old are given a single injection of the LNP formulations into the gastrocnemius muscle at a dosage level of 0.1 ug. Blood samples were collected at 6 and 24 hours post-dose. hEPO protein expression levels were measured in the sera samples by ELISA and presented in FIG. 1.

SMILES	in vivo protein production resulting from the delivery of mRNA (FIG. 1)
CCCCCCCC(C)COC(=O)CCN(CCC(=O)OCCCCCCCC(C)C)[C@@H](CSSC[C@@H](C(=O)OCCOCCOCCOC)N(CCC(=O)OCCCCCCCC(C)C)CCC(=O)OCC(C)CCCCCCC)C(=O)OCCOCCOCCOC (some centres unmarked) [Compound 4]	high levels of in vivo protein production
CCCCCCCC(C)COC(=O)CCN(CCC(=O)OCCCCCCCC(C)C)[C@@H](CSSC[C@@H](C(=O)OC(C)CN(CCCN(C)C)CCCN(C)C)N(CCC(=O)OCCCCCCCC(C)C)CCC(=O)OCC(C)CCCCCCC)C(=O)OC(C)CN(CCCN(C)C)CCCN(C)C (some centres unmarked) [Compound 3]	high levels of in vivo protein production
